In ChEMBL document CHEMBL3352328, “Synthesis and biological evaluation of a new series of N-acyldiamines as potential antibacterial and antifungal agents” (2014):
In brackets after ≈: the same amount, converted by molar mass. Activity calls are given as the source filed them. No cut-off for these calls is given here.

Key:
[1] = tested on: Nakaseomyces glabratus; assay: Antifungal activity against Candida glabrata ATCC 90030 by broth microdilution method; assay type: functional
[2] = tested on: Pseudomonas aeruginosa; assay: Antimicrobial activity against Pseudomonas aeruginosa ATCC 27853 by broth dilution method; assay type: functional
[3] = tested on: Candida parapsilosis; assay: Antifungal activity against Candida parapsilosis ATCC 22019 by broth microdilution method; assay type: functional; conditions: Lodderomyces parapsilosis
[4] = tested on: Escherichia coli; assay: Antimicrobial activity against Escherichia coli ATCC 11229 by broth dilution method; assay type: functional
[5] = tested on: Candida tropicalis; assay: Antifungal activity against Candida tropicalis ATCC 750 by broth microdilution method; assay type: functional
[6] = tested on: Staphylococcus aureus; assay: Antimicrobial activity against Staphylococcus aureus ATCC 29213 by broth dilution method; assay type: functional
[7] = tested on: Candida albicans; assay: Antifungal activity against Candida albicans ATCC 18804 by broth microdilution method; assay type: functional
[8] = tested on: Staphylococcus epidermidis; assay: Antimicrobial activity against Staphylococcus epidermidis ATCC 12228 by broth dilution method; assay type: functional
[9] = tested on: Escherichia coli; assay: Bactericidal activity against Escherichia coli ATCC 11229 after 24 hrs; assay type: functional; conditions: ATCC 11229, 24 h
[10] = tested on: Pseudomonas aeruginosa; assay: Bactericidal activity against Pseudomonas aeruginosa ATCC 27853 after 24 hrs; assay type: functional; conditions: ATCC 27853, 24 h
[11] = tested on: Staphylococcus epidermidis; assay: Bactericidal activity against Staphylococcus epidermidis ATCC 12228 after 24 hrs; assay type: functional; conditions: ATCC 12228, 24 h
[12] = tested on: Staphylococcus aureus; assay: Bacteriostatic activity against Staphylococcus aureus ATCC 29213 after 24 hrs; assay type: functional, organism-based
[13] = tested on: Staphylococcus aureus; assay: Bactericidal activity against methicillin-resistant Staphylococcus aureus clinical isolate 1 after 24 hrs; assay type: functional; conditions: isolate 1, 24 h
[14] = tested on: Staphylococcus aureus; assay: Bactericidal activity against methicillin-resistant Staphylococcus aureus clinical isolate 13 after 24 hrs; assay type: functional; conditions: isolate 13, 24 h
[15] = tested on: Staphylococcus aureus; assay: Bactericidal activity against methicillin-resistant Staphylococcus aureus clinical isolate 2 after 24 hrs; assay type: functional; conditions: isolate 2, 24 h
[16] = tested on: Staphylococcus aureus; assay: Bactericidal activity against methicillin-resistant Staphylococcus aureus clinical isolate 17 after 24 hrs; assay type: functional; conditions: isolate 17, 24 h
[17] = tested on: Staphylococcus aureus; assay: Bactericidal activity against methicillin-resistant Staphylococcus aureus clinical isolate 15 after 24 hrs; assay type: functional; conditions: isolate 15, 24 h
[18] = tested on: Staphylococcus aureus; assay: Bactericidal activity against methicillin-resistant Staphylococcus aureus clinical isolate 21 after 24 hrs; assay type: functional; conditions: isolate 21, 24 h
[19] = tested on: Staphylococcus aureus; assay: Bactericidal activity against methicillin-resistant Staphylococcus aureus clinical isolate 16 after 24 hrs; assay type: functional; conditions: isolate 16, 24 h
[20] = tested on: Staphylococcus aureus; assay: Bactericidal activity against methicillin-resistant Staphylococcus aureus clinical isolate 6 after 24 hrs; assay type: functional; conditions: isolate 6, 24 h
[21] = tested on: Staphylococcus aureus; assay: Bactericidal activity against methicillin-resistant Staphylococcus aureus clinical isolate 9 after 24 hrs; assay type: functional; conditions: isolate 9, 24 h
[22] = tested on: Staphylococcus aureus; assay: Bactericidal activity against methicillin-resistant Staphylococcus aureus clinical isolate 3 after 24 hrs; assay type: functional; conditions: isolate 3, 24 h
[23] = tested on: Staphylococcus aureus; assay: Bactericidal activity against methicillin-resistant Staphylococcus aureus clinical isolate 11 after 24 hrs; assay type: functional; conditions: isolate 11, 24 h
[24] = tested on: Staphylococcus aureus; assay: Bactericidal activity against methicillin-resistant Staphylococcus aureus clinical isolate 8 after 24 hrs; assay type: functional; conditions: isolate 8, 24 h
[25] = tested on: Staphylococcus aureus; assay: Bactericidal activity against methicillin-resistant Staphylococcus aureus clinical isolate after 24 hrs; assay type: functional
[26] = tested on: Staphylococcus aureus; assay: Bactericidal activity against methicillin-resistant Staphylococcus aureus clinical isolate 4 after 24 hrs; assay type: functional; conditions: isolate 4, 24 h
[27] = tested on: Staphylococcus aureus; assay: Bactericidal activity against methicillin-resistant Staphylococcus aureus clinical isolate 10 after 24 hrs; assay type: functional; conditions: isolate 10, 24 h
[28] = tested on: Staphylococcus aureus; assay: Bactericidal activity against methicillin-resistant Staphylococcus aureus clinical isolate 20 after 24 hrs; assay type: functional; conditions: isolate 20, 24 h
[29] = tested on: Staphylococcus aureus; assay: Bactericidal activity against methicillin-resistant Staphylococcus aureus clinical isolate 18 after 24 hrs; assay type: functional; conditions: isolate 18, 24 h
[30] = tested on: Staphylococcus aureus; assay: Bactericidal activity against methicillin-resistant Staphylococcus aureus clinical isolate 14 after 24 hrs; assay type: functional; conditions: isolate 14, 24 h
[31] = tested on: Staphylococcus aureus; assay: Bactericidal activity against methicillin-resistant Staphylococcus aureus clinical isolate 7 after 24 hrs; assay type: functional; conditions: isolate 7, 24 h
[32] = tested on: Escherichia coli; assay: Bacteriostatic activity against Escherichia coli ATCC 11229 after 24 hrs; assay type: functional, organism-based
[33] = tested on: Staphylococcus aureus; assay: Bactericidal activity against methicillin-resistant Staphylococcus aureus clinical isolate 19 after 24 hrs; assay type: functional; conditions: isolate 19, 24 h
[34] = tested on: Pseudomonas aeruginosa; assay: Bacteriostatic activity against Pseudomonas aeruginosa ATCC 27853 after 24 hrs; assay type: functional, organism-based
[35] = tested on: Staphylococcus aureus; assay: Bactericidal activity against methicillin-resistant Staphylococcus aureus clinical isolate 5 after 24 hrs; assay type: functional; conditions: isolate 5, 24 h
[36] = tested on: Staphylococcus aureus; assay: Bactericidal activity against methicillin-resistant Staphylococcus aureus clinical isolate 12 after 24 hrs; assay type: functional; conditions: isolate 12, 24 h
[37] = tested on: Staphylococcus aureus; assay: Bactericidal activity against Staphylococcus aureus ATCC 29213 after 24 hrs; assay type: functional; conditions: ATCC 29213, 24 h
[38] = tested on: Staphylococcus epidermidis; assay: Bacteriostatic activity against Staphylococcus epidermidis ATCC 12228 after 24 hrs; assay type: functional, organism-based

CCCCCCCCCCCC(=O)NCCCN
MIC [1]: 32 µg/mL (≈ 125 µM)
MIC [2]: 64 µg/mL (≈ 250 µM)
MIC [3]: 64 µg/mL (≈ 250 µM)
MIC [4]: 128 µg/mL (≈ 499 µM)
MIC [5]: 128 µg/mL (≈ 499 µM)
MIC [6]: 256 µg/mL (≈ 998 µM)
MIC [7]: 256 µg/mL (≈ 998 µM)
MIC [8]: 32 µg/mL (≈ 125 µM)
MBC [9]: 512 µg/mL (≈ 2000 µM)
MBC [10]: 256 µg/mL (≈ 998 µM)
MBC [11]: 32 µg/mL (≈ 125 µM)
Activity [12]: Active

O=C(N[C@H](CO)[C@H](O)c1ccc([N+](=O)[O-])cc1)C(Cl)Cl [CHLORAMPHENICOL]
MBC [13]: 64 µg/mL (≈ 198 µM)
MBC [14]: 64 µg/mL (≈ 198 µM)
MIC [2]: 32 µg/mL (≈ 99 µM)
MBC [15]: 4 µg/mL (≈ 12.4 µM)
MBC [16]: 4 µg/mL (≈ 12.4 µM)
MBC [17]: 32 µg/mL (≈ 99 µM)
MBC [18]: 8 µg/mL (≈ 24.8 µM)
MBC [19]: 32 µg/mL (≈ 99 µM)
MBC [20]: 8 µg/mL (≈ 24.8 µM)
MBC [21]: 8 µg/mL (≈ 24.8 µM)
MBC [22]: 4 µg/mL (≈ 12.4 µM)
MBC [23]: 64 µg/mL (≈ 198 µM)
MBC [24]: 64 µg/mL (≈ 198 µM)
MIC90 [25]: 32 µg/mL (≈ 99 µM)
MBC [26]: 8 µg/mL (≈ 24.8 µM)
MIC [8]: 32 µg/mL (≈ 99 µM)
MBC [27]: 64 µg/mL (≈ 198 µM)
MBC [28]: 4 µg/mL (≈ 12.4 µM)
MBC [29]: 8 µg/mL (≈ 24.8 µM)
MBC [30]: 64 µg/mL (≈ 198 µM)
MBC [31]: 64 µg/mL (≈ 198 µM)
Activity [32]: Active
MBC [33]: 128 µg/mL (≈ 396 µM)
Activity [34]: Active
MBC [11]: 128 µg/mL (≈ 396 µM)
MBC [35]: 4 µg/mL (≈ 12.4 µM)
MBC [36]: 64 µg/mL (≈ 198 µM)
Activity [12]: Active

CCCCCCCCCCCCCC(=O)NCCCCN
MIC [1]: 32 µg/mL (≈ 107 µM)
MIC [2]: 1020 µg/mL (≈ 3430 µM)
MIC [3]: 128 µg/mL (≈ 429 µM)
MIC [4]: 256 µg/mL (≈ 858 µM)
MIC [5]: 64 µg/mL (≈ 214 µM)
MBC [37]: 1020 µg/mL (≈ 3430 µM)
MIC [6]: 16 µg/mL (≈ 53.6 µM)
MIC [7]: 16 µg/mL (≈ 53.6 µM)
MIC [8]: 16 µg/mL (≈ 53.6 µM)
MBC [9]: 1020 µg/mL (≈ 3430 µM)
MBC [10]: 1020 µg/mL (≈ 3430 µM)
MBC [11]: 32 µg/mL (≈ 107 µM)

CCCCCCCCCCCCCC(=O)NCCN
MIC [1]: 16 µg/mL (≈ 59.2 µM)
MIC [2]: 1020 µg/mL (≈ 3790 µM)
MBC [15]: 512 µg/mL (≈ 1890 µM)
Activity [38]: Active
MBC [16]: 128 µg/mL (≈ 473 µM)
MBC [17]: 64 µg/mL (≈ 237 µM)
MBC [18]: 128 µg/mL (≈ 473 µM)
MIC [3]: 32 µg/mL (≈ 118 µM)
MBC [20]: 512 µg/mL (≈ 1890 µM)
MIC [4]: 64 µg/mL (≈ 237 µM)
MBC [22]: 512 µg/mL (≈ 1890 µM)
MIC [5]: 16 µg/mL (≈ 59.2 µM)
MBC [37]: 128 µg/mL (≈ 473 µM)
MIC [6]: 8 µg/mL (≈ 29.6 µM)
MIC [7]: 4 µg/mL (≈ 14.8 µM)
MIC50 [25]: 32 µg/mL (≈ 118 µM)
MIC90 [25]: 256 µg/mL (≈ 947 µM)
MBC [26]: 512 µg/mL (≈ 1890 µM)
MIC [8]: 16 µg/mL (≈ 59.2 µM)
MBC [27]: 512 µg/mL (≈ 1890 µM)
MBC [29]: 128 µg/mL (≈ 473 µM)
MBC [30]: 128 µg/mL (≈ 473 µM)
Activity [32]: Active
Activity [34]: Active
MBC [35]: 512 µg/mL (≈ 1890 µM)

CCCCCCCC/C=C\CCCCCCCC(=O)NCCN
MIC [1]: 64 µg/mL (≈ 197 µM)
MIC [2]: > 1020 µg/mL
Activity [38]: Active
MIC [3]: 128 µg/mL (≈ 394 µM)
MIC [4]: > 1020 µg/mL
MIC [5]: 128 µg/mL (≈ 394 µM)
MIC [6]: > 1020 µg/mL
MIC [7]: 128 µg/mL (≈ 394 µM)
MIC [8]: 8 µg/mL (≈ 24.6 µM)

CCCCCCCC/C=C\CCCCCCCC(=O)NCCCCN
MIC [1]: 2 µg/mL (≈ 5.67 µM)
MIC [2]: > 1020 µg/mL
MIC [3]: 1 µg/mL (≈ 2.84 µM)
MIC [4]: 8 µg/mL (≈ 22.7 µM)
MIC [5]: 4 µg/mL (≈ 11.3 µM)
MIC [6]: 16 µg/mL (≈ 45.4 µM)
MIC [7]: 2 µg/mL (≈ 5.67 µM)
MIC [8]: 4 µg/mL (≈ 11.3 µM)
Activity [32]: Active
Activity [34]: Active
MBC [11]: 128 µg/mL (≈ 363 µM)
Activity [12]: Active

CCCCCCCCCCCCCCCC(=O)NCCN
MIC [1]: 8 µg/mL (≈ 26.8 µM)
MIC [2]: > 1020 µg/mL
MIC [3]: 4 µg/mL (≈ 13.4 µM)
MIC [4]: > 1020 µg/mL
MIC [5]: 16 µg/mL (≈ 53.6 µM)
MIC [6]: > 1020 µg/mL
MIC [7]: 4 µg/mL (≈ 13.4 µM)
MIC [8]: > 1020 µg/mL
